For data set [1], the system named is human subjects. Nature of the data set: Calibrated sound challenge: temporary threshold shift (TTS) by serial pure tone audiometry, randomized double-blinded placebo-controlled Phase 2 study. In kind it is in vivo. The protocol:
(§1) A study was performed to evaluate the safety and efficacy of an orally delivered candidate composition in human subjects. The candidate composition ebselen (aka. SPI-1005) was evaluated for efficacy using the methods disclosed herein. Ebselen or placebo was administered in a randomized double-blinded study to subjects, who were then exposed to a calibrated sound or noise challenge. Post-sound exposure pure tone audiometry was compared with baseline (i.e., immediately pre-sound exposure) testing to determine group mean level hearing threshold shift changes between treated and placebo groups. The single center, randomized, double-blinded, placebo-controlled study enrolled 83 subjects, all between the ages of 18 and 31. All enrolled subjects ranged from having slight hearing loss (less than or equal to 25 dB HL) to normal hearing.
Each subject was instructed to avoid non-occupational sound exposure (e.g., concerts, firearms, fireworks, power tools) during the 24-hour period preceding baseline testing and throughout the duration of the study. Vital signs (i.e., heart rate, blood pressure, respirations, temperature) were within normal limits for each subject. Subjects had conventional audiologic assessments at baseline consisting of: (a) pure tone audiometry to confirm that subjects had symmetric hearing with air conduction thresholds no worse than 25 dB HL at frequencies between 0.25 to 8 kHz bilaterally, (b) no significant threshold asymmetry (i.e. greater than 15 dB) between any subject's ears at any tested frequency,(c) no significant air-bone gaps (i.e. greater than 10 dB). Bone conduction testing with masking as conducted at screening at 250, 500, 1000, 2000, or 4000 Hz if the air-conduction threshold was greater than 15 dB HL, and (d) Type A tympanograms bilaterally, defined as a range of −140 to +40 daPa based on the 90% range for adults. Subjects with pure tone audiometry hearing thresholds>25 dB HL at any tested frequency (250, 500, 1000, 2000, 3000, 4000, 6000, and 8000 Hz) for either ear were excluded from the study.
Ebselen, or 2-phenyl-1,2-benzisoselenazol-3 (2H)-one, was selected as a candidate composition. The ebselen formulation was a capsule containing 200 mg of ebselen and 150 mg of the excipients microcrystalline cellulose, sodium croscarmellose, and magnesium sterate. Each subject received ebselen at one of three dosages (either 200 mg, 400 mg, or 600 mg) or received a placebo, delivered orally twice daily for four days, beginning two days prior to exposure to a controlled sound and continuing on the day of and on the day following the exposure to the controlled sound. The study was randomized to assign each subject to a treatment or placebo group. All subjects took 3 capsules in the morning (AM) and 3 capsules in the evening (PM) (each capsule either contained 200 mg ebselen or placebo), ideally 12 hours apart.
On Day 3 of the ebselen treatment, subjects underwent audiometric testing immediately prior to sound-exposure to establish their baseline hearing levels. Subjects listened to a 100 dBA SPL sound exposure delivered via insert earphones from a Personal Music Player (PMP, specifically an iPod®) for 4 continuous hours. The sound exposure method was similar to that discussed in Le Prell, C. et al., Ear & Hearing 33:e44-e58, 2012, hereby incorporated by reference in its entirety. The music levels were measured using Bruel & Kjaer type 4157 artificial ear couplers. Subjects listened to sound from music playlists with a choice of rock or pop music. No changes in volume or duration of the sound exposure were permitted. At 15 minutes, 75 minutes, 135 minutes, 195 minutes, 24 hours, and 1 week after sound exposure, subjects were tested for pure tone audiometric thresholds. Serial pure tone audiometry determined the incidence (greater or equal to 10 dB HL), severity (dB HL) and duration (up to 1 week post sound exposure) of the TTS. Audiometric data was collected at 250, 500, 1000, 2000, 3000, 4000, 6000, and 8000 Hz. […]

In data set [2] the test system is human subjects. In words: Safety and tolerability of orally delivered ebselen in the Phase 2 study. The note with it: oral 200, 400 or 600 mg twice daily for four days; CBC, Chemistry-20, Chest X-ray. The format is in vivo. The protocol: as §1
Ebselen, or 2-phenyl-1,2-benzisoselenazol-3 (2H)-one, was selected as a candidate composition. […]
Side effects of the ebselen delivery were analyzed. Clinical signs and symptoms from physical exam were evaluated, such as shortness of breath, wheezing, coughing, hemoptysis, resting pulse oximetry, chest X-rays, and laboratory findings such as hematology, chemistry, and urinalysis. Exposure to ebselen was quantified from plasma by LC-MS/MS. […]

Molecules are shown by their SMILES.

Take `O=c1c2ccccc2[se]n1-c1ccccc1` [ebselen, 2-phenyl-1,2-benzisoselenazol-3 (2H)-one]: the “TTS at 4 kHz vs. placebo at later time points” value in the data set with human subjects [1] (1.25, 2.25 and 3.25 hours post sound exposure, 400 mg dose group, ITT) is recorded as “significantly reduced”. In addition, the “TTS incidence (subjects with greater or equal to 10 dB HL shift in either ear)” value in the data set with human subjects [1] (15 minutes post 100 dBA SPL 4 h sound exposure, oral twice daily for four days, 600 mg dose most effective, ITT, placebo 60%) amounted to 20%. Moreover, the “TTS averaged across all tested frequencies, or mean across 3, 4, 6 kHz or 4, 6, 8 kHz” value in the data set with human subjects [1] (15 minutes post sound exposure, 400 mg dose most effective, ITT) is reported as “clinically relevant reductions”. The “TTS severity at 4 kHz” value with human subjects [1] (15 minutes post sound exposure, oral twice daily for four days, 400 mg dose most effective, ITT, placebo 4.1) stood at 1.3 dB HL. In the data set with human subjects [1] (all ebselen treatment groups compared with placebo, FIG. 2), the “Incidence of subjects that returned to baseline hearing within 24 hours” value is given as “greater incidence of subjects that returned to baseline hearing within 24 hours”. The TTS duration with human subjects [1] (oral twice daily for four days, placebo 24 hrs) was 1.3 h. Besides, the “Tolerability / drug-related adverse events” value in the data set on human subjects [2] is reported as “well-tolerated with no drug-related adverse events”.

These data come from US20180161459A1, “Methods of Screening for Drugs to Prevent Noise-Induced Hearing Loss” (Sound Pharmaceuticals Incorporated, priority 2015, published 2018).
